Patent US20030044974A1, “Method for collecting cells in M phase or G1 phase and method for nuclear transplantation using the cells” (priority 2001, published 2003)
Marks after values point to notes of the source that are not given here.

Tests used:
[1] = system: bovine fibroblast cells; assay: Combination of metaphase-synchronizing agent and shaking treatment: cell cycles of cells recovered from culture supernatant (Comparative Example 2); assay type: cell-based
Description: Fibroblast Cells and Observation Thereof Fetal fibroblast cells were recovered by collecting the medium containing the cells in a 15 ml test tube and by centrifuging the medium (180g, 5 minutes). After the centrifugation, the cell precipitate was resuspended with a small amount of the medium, and the resulting cell suspension was uniformly smeared on a slide glass. The slide glass was air-dried at room temperature and the cells were fixed (99.9% ethanol, 5 minutes) to prepare preparations.
Thirty minutes later, the whole culture supernatant was recovered after subjecting the petri dish to shaking treatment, or without the shaking treatment. The shaking treatment was carried out by intimately attaching the bottom plate of the plastic petri dish to a mixer (IKEDA RIKA, D-10) and driving the mixer to circularly move the petri dish for 1 minute (3000 rpm, diameter of circular movement: 0.3 cm). […] The cell pellet was resuspended in a small amount of the medium and the obtained cell suspension was smeared on a slide glass.
How the cell cycles of the cells recovered from the culture supernatant change by combination of the metaphase-synchronizing agent (2-MeOE2) and the shaking treatment was investigated with successively repeating the step of shaking treatment and the subsequent recovery 3 times. […] Thirty minutes later, shaking treatment was performed as in the first time and the second time, and the culture supernatant was centrifuged to recover the cells (third time recovered cells). The cells obtained using different concentrations of the metaphase-synchronizing agent and obtained in different times of recovery were respectively resuspended in a small amount of the medium and smear preparations were prepared. The smear preparations were air-dried, fixed, stained and observed.

[2] = system: bovine fibroblast cells; assay: Collection of M phase cells: synchronization, shaking treatment and selection by size with 20 μm pipette (Example 1)
Description: As the bovine fibroblast cells (Japanese black), the cells from a fetal at Day 54 from conception were used. The recovered fetus was aseptically minced and digested with trypsin. The cell suspension was recovered and cultured in Dulbecco's modified eagle medium (D-MEM, Gibco BRL, Cat No. 11885-084, MD, USA), followed by storing frozen cells (one passage). For experiments, the frozen stored cells seeded on a 10 cm plastic petri dish (Falcon, 353003) were once subcultured, and the cells grown to logarithmic growth phase were used.
For synchronization to metaphase, 10% FBS-containing minimum essential medium (S-MEM, Cat. No.11385-036,Gibco BRL, MD, USA) supplemented with 2-methoxyestadiol (2-MeOE2, Cat No.M6383, Sigma chemical Co., MO, USA) to a concentration of 0.5 μM or 1 μM was used.
Each preparation was stained with Hoechst 33342 (Sigma Chemical Co, MO, USA) and observed with a fluorescence microscope. Only the cells having clear boundary of cell membrane were used for judgment. In Comparative Examples 1 and 2, the cells in prophase, metaphase, anaphase and telophase of cell cycle were classified into the cells in mitotic phase (M phase). The cells containing only one nucleus covered with a nuclear membrane were judged as the cells in interphase. The cells in which the nucleus in the cytoplasm is fragmented, the cells containing no nucleus in the cytoplasm, and the cells having a lot of nuclei in the cytoplasm were judged as abnormal cells. In Examples 1 and 2, M phase cells were further classified into normal metaphase cells (the one nucleus in metaphase is located in the cytoplasm) and abnormal metaphase cells (the two or more nuclei in metaphase are located in the cytoplasm). The cells in interphase were classified into normal interphase cells (only one nucleus having nuclear membrane exists in the cytoplasm) and abnormal interphase cells (two or more nuclei having nuclear membrane exist in the cytoplasm, or the nucleus in the cytoplasm is fragmented).
D-MEM medium in a petri dish containing cells in logarithmic growth phase was replaced with 5 ml of S-MEM medium containing 1.0 μM 2-MeOE2, and the culturing was continued. Thirty minutes later, the shaking treatment was carried out as in Comparative Example 1 and the culture supernatant was discarded. To the petri dish after discarding the culture supernatant, fresh S-MEM medium containing 1 μM 2-MeOE2 was added and the culture was continued for another 30 minutes. Thirty minutes later, the shaking treatment was carried out as described above and the culture supernatant was centrifuged (1000 rpm, 5 minutes) to recover the cells (second time recovered cells). An aliquot of the collected cells was transferred to D-MEM medium containing 1 μM 2-MeOE2, and substantially spherical cells having clear boundary of cell membrane and having a diameter slightly larger than 20 μm were selected within 30 minutes using a glass pipette (COOK, Cat.No.PBBP-2000) having an inner diameter of 20 μm. The selected cells were immediately transferred to phosphate buffered saline (D-PBS) containing Hoechst33342 and 1 μM 2-MeOE2, and cell cycles were determined under an inverted fluorescence microscope.

[3] = system: cells; settings: nocodazole treatment, cells collected by the shaking method; cited from earlier work
[4] = 0.5 μM 2-MeOE2, first time recovered cells
[5] = 0.5 μM 2-MeOE2, first time recovered cells, of 2046 observed cells
[6] = 0.5 μM 2-MeOE2, second time recovered cells
[7] = 0.5 μM 2-MeOE2, second time recovered cells, of 2078 observed cells
[8] = 0.5 μM 2-MeOE2, third time recovered cells
[9] = 0.5 μM 2-MeOE2, third time recovered cells, of 2052 observed cells
[10] = 1 μM 2-MeOE2, first time recovered cells
[11] = 1 μM 2-MeOE2, first time recovered cells, of 2033 observed cells
[12] = 1 μM 2-MeOE2, second time recovered cells
[13] = 1 μM 2-MeOE2, second time recovered cells, of 2075 observed cells
[14] = 1 μM 2-MeOE2, third time recovered cells
[15] = 1 μM 2-MeOE2, third time recovered cells, of 2126 observed cells
[16] = 1 μM 2-MeOE2, second culture, shaking treatment, diameter not less than about 20 μm
[17] = 1 μM 2-MeOE2, second time recovered cells, 20 μm pipette, of 249 observed cells
[18] = 1 μM 2-MeOE2, second time recovered cells, selected with 20 μm pipette

COc1cc2c(cc1O)CC[C@@H]1[C@@H]2CC[C@]2(C)[C@@H](O)CC[C@@H]12 [2-MeOE2, 2-methoxyestradiol]
Number of Metaphase Cells (mean ± SD(%)) ([1]; 0.5 μM 2-MeOE2, 30 min, first time recovered cells, shaking treatment): (28.8 ± 3.0^a) %
Number of Abnormal Cells (mean ± SD(%)) [1, 4]: (15.4 ± 5.8^a) %
Number of Normal Interphase Cells (mean ± SD(%)) [1, 4]: (55.8 ± 3.6^a) %
Number of Abnormal Cells [1, 5]: 313
Number of Metaphase Cells [1, 5]: 591
Number of Normal Interphase Cells [1, 5]: 1142
Number of Abnormal Cells (mean ± SD(%)) [1, 6]: (6.6 ± 4.2^bc) %
Number of Metaphase Cells (mean ± SD(%)) [1, 6]: (45.2 ± 7.9^bc) %
Number of Abnormal Cells [1, 7]: 135
Number of Metaphase Cells [1, 7]: 940
Number of Normal Interphase Cells [1, 7]: 1003
Number of Abnormal Cells (mean ± SD(%)) [1, 8]: (6.4 ± 3.9^c) %
Number of Metaphase Cells (mean ± SD(%)) [1, 8]: (46.0 ± 7.5^c) %
Number of Normal Interphase Cells (mean ± SD(%)) [1, 8]: (47.6 ± 4.7^c) %
Number of Abnormal Cells [1, 9]: 130
Number of Metaphase Cells [1, 9]: 945
Number of Normal Interphase Cells [1, 9]: 977
percentage of the M phase cells ([1]; 0.5 μM or 1.0 μM 2-MeOE2 with shaking treatment, first to third time recovered cells, shaking only 26.1%): 28.8 to 81.2%
Number of Abnormal Cells (mean ± SD(%)) [1, 10]: (11.4 ± 5.6^d) %
Number of Metaphase Cells (mean ± SD(%)) [1, 10]: (50.1 ± 8.6^d) %
Number of Normal Interphase Cells (mean ± SD(%)) [1, 10]: (38.5 ± 6.8^d) %
Number of Abnormal Cells [1, 11]: 232
Number of Metaphase Cells [1, 11]: 1017
Number of Normal Interphase Cells [1, 11]: 784
Number of Abnormal Cells (mean ± SD(%)) [1, 12]: (3.1 ± 1.5^ef) %
Number of Metaphase Cells (mean ± SD(%)) [1, 12]: (77.7 ± 5.4^e) %
Number of Normal Interphase Cells (mean ± SD(%)) [1, 12]: (19.2 ± 5.0^ef) %
Number of Abnormal Cells [1, 13]: 63
Number of Metaphase Cells [1, 13]: 1614
Number of Normal Interphase Cells [1, 13]: 398
Number of Abnormal Cells (mean ± SD(%)) [1, 14]: (3.2 ± 1.7^f) %
Number of Metaphase Cells (mean ± SD(%)) [1, 14]: (81.2 ± 5.0^f) %
Number of Normal Interphase Cells (mean ± SD(%)) [1, 14]: (15.6 ± 3.3^f) %
Number of Abnormal Cells [1, 15]: 68
Number of Metaphase Cells [1, 15]: 1728
Number of Normal Interphase Cells [1, 15]: 330
M phase cells among the collected cells [2, 16]: 99.1%
normal metaphase cells among the collected cells (243/246) [2, 16]: 98.8%
Number of Abnormal Interphase Cells [2, 17]: 0
Number of Abnormal Metaphase Cells [2, 17]: 3
Number of Normal Interphase Cells [2, 17]: 3
Number of Normal Metaphase Cells [2, 17]: 243
Number of Abnormal Interphase Cells (mean ± SD(%)) [2, 18]: (0.0 ± 0.0) %
Number of Abnormal Metaphase Cells (mean ± SD(%)) [2, 18]: (1.3 ± 2.5) %
Number of Normal Interphase Cells (mean ± SD(%)) [2, 18]: (1.0 ± 1.1) %
Number of Normal Metaphase Cells (mean ± SD(%)) [2, 18]: (97.8% ± 2.1)

COC(=O)Nc1nc2ccc(C(=O)c3cccs3)cc2[nH]1 [nocodazole]
cells in the metaphase obtained [3]: 25 to 34%
